Data from ChEMBL document CHEMBL1201862, “PubChem BioAssay data set” (2004).
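Following 48 hours of exposure in 96-well plates, responses at five concentrations were used to interpolate endpoints linearly. GI50: concentration for 50% inhibition of growth.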 Active and inactive are the calls of the source. No stated cut-off is given here; in the data, active = GI50 up to about 1.1 µM and inactive = higher.

Assays:
Assay in all cases: NCI-60 cell line screen, 48 h
A498 = system: A498
CCRF-CEM = system: CCRF-CEM
DU-145 = system: DU-145
HCT-15 = system: HCT-15
HOP-62 = system: HOP-62
HT-29 = system: HT-29
Hs-578T = system: Hs-578T
IGROV-1 = system: IGROV-1
LOX IMVI = system: LOX IMVI
NCI-H23 = system: NCI-H23
OVCAR-5 = system: OVCAR-5
OVCAR-8 = system: OVCAR-8
RPMI-8226 = system: RPMI-8226
RXF 393 = system: RXF 393
SK-MEL-5 = system: SK-MEL-5
SN12C = system: SN12C
SNB-75 = system: SNB-75
SR = system: SR
SW-620 = system: SW-620
UO-31 = system: UO-31

| Structure (SMILES) | GI50 (A498) | GI50 (CCRF-CEM) | GI50 (DU-145) | GI50 (HCT-15) | GI50 (HOP-62) | GI50 (HT-29) | GI50 (Hs-578T) | GI50 (IGROV-1) | GI50 (LOX IMVI) | GI50 (NCI-H23) | GI50 (OVCAR-5) | GI50 (OVCAR-8) | GI50 (RPMI-8226) | GI50 (RXF 393) | GI50 (SK-MEL-5) | GI50 (SN12C) | GI50 (SNB-75) | GI50 (SR) | GI50 (SW-620) | GI50 (UO-31) |
| --- | --- | --- | --- | --- | --- | --- | --- | --- | --- | --- | --- | --- | --- | --- | --- | --- | --- | --- | --- | --- |
| COC(=O)C1=C(C)NC(CF)=C(C(=O)OC)C1c1cccc2c(=O)c3ccccc3oc12 (stereo unspecified) | 5.53 µM (inactive) | 5.28 µM (inactive) | 90.4 µM (inactive) | 4.79 µM | 11.7 µM (inactive) | 3.58 µM (inactive) | 9.62 µM (inactive) | 2.37 µM (inactive) | 7.4 µM (inactive) | 36.8 µM (inactive) | > 100 µM (inactive) | 19.9 µM (inactive) | 69.3 µM (inactive) | 11.7 µM (inactive) | 5.06 µM (inactive) | 4.63 µM (inactive) | 8.41 µM (inactive) | 9.4 µM (inactive) | 1.73 µM (inactive) | 6.59 µM (inactive) |
| CCCCOP(=O)(OCCCC)/C(C#N)=C/c1ccc(C)o1 | 56 µM (inactive) |  | > 100 µM (inactive) | 38.7 µM | > 100 µM (inactive) | 45.6 µM (inactive) | 57.4 µM (inactive) | > 100 µM (inactive) | 59 µM (inactive) | 30.4 µM (inactive) | 86.3 µM (inactive) | 53.6 µM (inactive) | 54.8 µM (inactive) | 26.7 µM (inactive) | 33.7 µM (inactive) | 56.1 µM (inactive) | 35.3 µM (inactive) | 51.6 µM (inactive) | 95.9 µM (inactive) |  |
| O=C(O)CCC/N=C(\C(=N\CCCC(=O)O)c1ccccc1)c1ccccc1 | > 100 µM (inactive) |  | > 100 µM (inactive) | > 100 µM | > 100 µM (inactive) |  | > 100 µM (inactive) | > 100 µM (inactive) | > 100 µM (inactive) | > 100 µM (inactive) | > 100 µM (inactive) | > 100 µM (inactive) | > 100 µM (inactive) | > 100 µM (inactive) |  | > 100 µM (inactive) | > 100 µM (inactive) | > 100 µM (inactive) | > 100 µM (inactive) | > 100 µM (inactive) |
| CC(C)(C)OC(=O)N(CCCN)CCCCN(CCCN)C(=O)OC(C)(C)C | > 100 µM (inactive) | > 100 µM (inactive) | > 100 µM (inactive) | > 100 µM | > 100 µM (inactive) | > 100 µM (inactive) | > 100 µM (inactive) | > 100 µM (inactive) | > 100 µM (inactive) | > 100 µM (inactive) | > 100 µM (inactive) | > 100 µM (inactive) | > 100 µM (inactive) | > 100 µM (inactive) | > 100 µM (inactive) |  | > 100 µM (inactive) | > 100 µM (inactive) | > 100 µM (inactive) | > 100 µM (inactive) |
| C(=C\c1ccccc1)/C=N/c1ccc2c(c1)Cc1ccccc1-2 | > 100 µM (inactive) | 14.7 µM (inactive) | 31.3 µM (inactive) | > 100 µM | > 100 µM (inactive) | > 100 µM (inactive) | 50.8 µM (inactive) | 61.5 µM (inactive) | 23.9 µM (inactive) | 36.1 µM (inactive) | > 100 µM (inactive) | 57.9 µM (inactive) |  | > 100 µM (inactive) | 98.9 µM (inactive) | 41.1 µM (inactive) | 38.6 µM (inactive) | 24 µM (inactive) | 69 µM (inactive) | > 100 µM (inactive) |
| CCc1ccccc1NNc1cc(=O)[nH]c(=O)[nH]1 | 21.2 µM (inactive) | 26.5 µM (inactive) | 46.2 µM (inactive) |  | 19.3 µM (inactive) | 20.8 µM (inactive) | 28.6 µM (inactive) | 19.5 µM (inactive) | 14 µM (inactive) | 34.8 µM (inactive) | 22 µM (inactive) | 23.4 µM (inactive) | 8.2 µM (inactive) | 22.2 µM (inactive) | 17.3 µM (inactive) | 18.8 µM (inactive) | 17.7 µM (inactive) | 30.5 µM (inactive) | 18.6 µM (inactive) | 17.2 µM (inactive) |
| CN(C)CCOc1ccc2[nH]c(C(=O)N3CC(CCl)c4c3cc([N+](=O)[O-])c3ccccc43)cc2c1 (stereo unspecified) | 2.94 µM (inactive) | 1.58 µM (inactive) | 2.55 µM (inactive) | 1.86 µM | 1.88 µM (inactive) | 2.15 µM (inactive) | 3.01 µM (inactive) | 2.14 µM (inactive) | 2.58 µM (inactive) | 2.74 µM (inactive) | 2.32 µM (inactive) | 1.6 µM (inactive) | 2.67 µM (inactive) | 1.55 µM (inactive) | 1.7 µM (inactive) |  | 1.85 µM (inactive) | 1.72 µM (inactive) | 2.17 µM (inactive) | 15.1 µM (inactive) |
| O=C1/C(=C/c2ccc(Cl)cc2)N=C(c2ccccc2)N1c1nc2ccccc2s1 | 30.5 µM (inactive) | 47.1 µM (inactive) | 78.2 µM (inactive) | 47.8 µM | > 100 µM (inactive) | 64.1 µM (inactive) | 20 µM (inactive) | 34.4 µM (inactive) | 43.6 µM (inactive) | 30.4 µM (inactive) | > 100 µM (inactive) | 59.4 µM (inactive) | 39.7 µM (inactive) | > 100 µM (inactive) | 31.6 µM (inactive) |  | 77.3 µM (inactive) | 0.0537 µM (active) | 64 µM (inactive) | 37.3 µM (inactive) |
| CC(=O)O[C@@H]1[C@H]2[C@@H](OC(=O)c3ccccc3)[C@@H](C)C[C@]2(O)[C@H](OC(C)=O)[C@@]2(C)[C@@H]3CC(C)(C)C(=O)[C@]3(OC(C)=O)C[C@@]12C | 12.8 µM (inactive) | 1.92 µM (inactive) | > 25 µM (inactive) | > 25 µM | 10.9 µM (inactive) |  | 9.53 µM (inactive) | > 25 µM (inactive) | > 25 µM (inactive) | > 25 µM (inactive) | > 25 µM (inactive) | 20.6 µM (inactive) |  | > 25 µM (inactive) | 18.7 µM (inactive) | > 25 µM (inactive) | 1.95 µM (inactive) | 20.7 µM (inactive) | 24.3 µM (inactive) | 13.9 µM (inactive) |
| COc1ccc2oc(=N)c(C(N)=O)cc2c1 | 44.2 µM (inactive) | 33.2 µM (inactive) | 71.9 µM (inactive) | 53.1 µM | 55.2 µM (inactive) | 56.4 µM (inactive) | 18.2 µM (inactive) | 30.5 µM (inactive) | 37.4 µM (inactive) | 68.2 µM (inactive) | > 100 µM (inactive) | > 100 µM (inactive) | > 100 µM (inactive) | > 100 µM (inactive) | 60.4 µM (inactive) | 74.5 µM (inactive) | 30.1 µM (inactive) | 38.5 µM (inactive) | 94.8 µM (inactive) |  |
| O=[N+]([O-])C(=C(N1CCCCC1)N1CCCCC1)/C(Cl)=C(\Cl)Br | 21.5 µM (inactive) | 11.1 µM (inactive) | 30.8 µM (inactive) | 16.4 µM | 44.7 µM (inactive) | 29.7 µM (inactive) | 0.871 µM (active) | 25.8 µM (inactive) | 16.1 µM (inactive) | 18.7 µM (inactive) |  | 16.4 µM (inactive) | 17.1 µM (inactive) | 20.5 µM (inactive) | 21 µM (inactive) | 29.7 µM (inactive) | 16.6 µM (inactive) | 5.93 µM (inactive) | 15.6 µM (inactive) | 34.5 µM (inactive) |
